Results as given in PubChem BioAssay AID1963830 (Molecular Pharmacology Branch, DTP, NCI, 2024).

Tested on: 922993-354-T-J3-PDC complex spheroid viability
Test: Anticancer human tumor 922993-354-T-J3-PDC patient-derived endometrial carcinoma cell line growth inhibition [POLQ]
Conditions: for IC50: curve of first compound; for viability, T/C: stronger effect = lower value
Outline: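 Complex spheroid viability model combining PDC tumour cells with endothelial (HUVEC) and MSC stromal cells. Novobiocin, ART-558 or RP6685 were tested singly and in combination with standard and investigational anticancer drugs. Each was titrated in half-log steps from near clinical Cmax, or from 10 microM where Cmax was unknown.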

[1] = second compound 0.0316 µM, first compound 0.0316 µM
[2] = second compound 0.0316 µM, first compound 0.1 µM
[3] = second compound 0.1 µM, first compound 0.0316 µM
[4] = second compound 0.1 µM, first compound 0.1 µM
[5] = second compound 0.316 µM, first compound 0.0316 µM
[6] = second compound 0.316 µM, first compound 0.1 µM
[7] = second compound 1 µM, first compound 0.0316 µM
[8] = second compound 1 µM, first compound 0.1 µM
[9] = second compound 3.16 µM, first compound 0.0316 µM
[10] = second compound 3.16 µM, first compound 0.1 µM
[11] = second compound 10 µM, first compound 0.0316 µM
[12] = second compound 10 µM, first compound 0.1 µM
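Note: spheroids exposed to the agents for one week.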
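Throughout, for viability, T/C: 100% = DMSO vehicle control wells.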

**Q.** Which IC50 (second compound 0.0316 µM) does the source give for `COc1ccc([C@@H](O)c2cc(-c3ncnc4cc(N5CCOCC5)ccc34)c(F)cc2Cl)nn1` + Cc1cccc(N(C)C(=O)C2C(O)CCN2c2nc(C)cc(C(F)(F)F)c2C#N)c1 here?
**A.** The IC50 was greater than 10 µM.

**Q.** And the IC50 (second compound 0.1 µM)?
**A.** Its IC50 is greater than 10 µM.

**Q.** What about the IC50 (second compound 0.316 µM) of the same molecule?
**A.** The IC50 was greater than 10 µM.

**Q.** And the IC50 (second compound 1 µM)?
**A.** The IC50 was greater than 10 µM.

**Q.** What about the IC50 (second compound 3.16 µM) of the same molecule?
**A.** Its IC50 is greater than 10 µM.

**Q.** And the IC50 (second compound 10 µM)?
**A.** The IC50 was greater than 10 µM.

**Q.** And the viability, T/C [1]?
**A.** Its viability, T/C is 94%.

**Q.** What about the viability, T/C [2] of the same molecule?
**A.** Its viability, T/C is 85.9%.

**Q.** And the viability, T/C (second compound 0.0316 µM, first compound 0.316 µM)?
**A.** Its viability, T/C is 97.3%.

**Q.** And the viability, T/C (second compound 0.0316 µM, first compound 1 µM)?
**A.** The viability, T/C was 98.3%.

**Q.** What about the viability, T/C (second compound 0.0316 µM, first compound 3.16 µM) of the same molecule?
**A.** Its viability, T/C is 85.4%.

**Q.** And the viability, T/C (second compound 0.0316 µM, first compound 10 µM)?
**A.** Its viability, T/C is 58.2%.

**Q.** And the viability, T/C [3]?
**A.** The viability, T/C was 97.2%.

**Q.** And the viability, T/C [4]?
**A.** Its viability, T/C is 99.5%.

**Q.** What about the viability, T/C (second compound 0.1 µM, first compound 0.316 µM) of the same molecule?
**A.** Its viability, T/C is 104%.

**Q.** And the viability, T/C (second compound 0.1 µM, first compound 1 µM)?
**A.** Its viability, T/C is 94.6%.

**Q.** What about the viability, T/C (second compound 0.1 µM, first compound 3.16 µM) of the same molecule?
**A.** Its viability, T/C is 81.1%.

**Q.** What about the viability, T/C (second compound 0.1 µM, first compound 10 µM) of the same molecule?
**A.** Its viability, T/C is 63.9%.

**Q.** What about the viability, T/C [5] of the same molecule?
**A.** Its viability, T/C is 99.9%.

**Q.** What about the viability, T/C [6] of the same molecule?
**A.** Its viability, T/C is 104%.

**Q.** And the viability, T/C (second compound 0.316 µM, first compound 0.316 µM)?
**A.** Its viability, T/C is 98.5%.

**Q.** And the viability, T/C (second compound 0.316 µM, first compound 1 µM)?
**A.** The viability, T/C was 84.3%.

**Q.** And the viability, T/C (second compound 0.316 µM, first compound 3.16 µM)?
**A.** The viability, T/C was 82.9%.

**Q.** And the viability, T/C (second compound 0.316 µM, first compound 10 µM)?
**A.** The viability, T/C was 62.6%.

**Q.** What about the viability, T/C [7] of the same molecule?
**A.** Its viability, T/C is 101%.

**Q.** And the viability, T/C [8]?
**A.** The viability, T/C was 93.5%.

**Q.** What about the viability, T/C (second compound 1 µM, first compound 0.316 µM) of the same molecule?
**A.** The viability, T/C was 103%.

**Q.** What about the viability, T/C (second compound 1 µM, first compound 1 µM) of the same molecule?
**A.** Its viability, T/C is 103%.

**Q.** What about the viability, T/C (second compound 1 µM, first compound 3.16 µM) of the same molecule?
**A.** Its viability, T/C is 79%.

**Q.** What about the viability, T/C (second compound 1 µM, first compound 10 µM) of the same molecule?
**A.** Its viability, T/C is 62.7%.

**Q.** And the viability, T/C [9]?
**A.** The viability, T/C was 103%.

**Q.** What about the viability, T/C [10] of the same molecule?
**A.** The viability, T/C was 102%.

**Q.** What about the viability, T/C (second compound 3.16 µM, first compound 0.316 µM) of the same molecule?
**A.** Its viability, T/C is 102%.

**Q.** And the viability, T/C (second compound 3.16 µM, first compound 1 µM)?
**A.** The viability, T/C was 86.9%.

**Q.** And the viability, T/C (second compound 3.16 µM, first compound 3.16 µM)?
**A.** Its viability, T/C is 80.2%.

**Q.** And the viability, T/C (second compound 3.16 µM, first compound 10 µM)?
**A.** Its viability, T/C is 60.5%.

**Q.** And the viability, T/C [11]?
**A.** The viability, T/C was 93.6%.

**Q.** And the viability, T/C [12]?
**A.** Its viability, T/C is 95%.

**Q.** What about the viability, T/C (second compound 10 µM, first compound 0.316 µM) of the same molecule?
**A.** Its viability, T/C is 91.4%.

**Q.** And the viability, T/C (second compound 10 µM, first compound 1 µM)?
**A.** The viability, T/C was 83.7%.

**Q.** What about the viability, T/C (second compound 10 µM, first compound 3.16 µM) of the same molecule?
**A.** Its viability, T/C is 78%.

**Q.** And the viability, T/C (second compound 10 µM, first compound 10 µM)?
**A.** Its viability, T/C is 57.9%.

**Q.** `Cn1ncnc1[C@H]1c2n[nH]c(=O)c3cc(F)cc(c23)N[C@@H]1c1ccc(F)cc1` + Cc1cccc(N(C)C(=O)C2C(O)CCN2c2nc(C)cc(C(F)(F)F)c2C#N)c1 was tested. Which IC50 (second compound 0.0316 µM) did it give?
**A.** Its IC50 is greater than 0.1 µM.

**Q.** What about the IC50 (second compound 0.1 µM) of the same molecule?
**A.** The IC50 was greater than 0.1 µM.

**Q.** And the IC50 (second compound 0.316 µM)?
**A.** Its IC50 is greater than 0.1 µM.

**Q.** What about the IC50 (second compound 1 µM) of the same molecule?
**A.** Its IC50 is greater than 0.1 µM.

**Q.** And the IC50 (second compound 3.16 µM)?
**A.** Its IC50 is 0.083 µM.

**Q.** And the IC50 (second compound 10 µM)?
**A.** Its IC50 is 0.0307 µM.

**Q.** What about the viability, T/C (second compound 0.0316 µM, first compound 0.000316 µM) of the same molecule?
**A.** Its viability, T/C is 97.8%.

**Q.** What about the viability, T/C (second compound 0.0316 µM, first compound 0.001 µM) of the same molecule?
**A.** The viability, T/C was 95.5%.

**Q.** And the viability, T/C (second compound 0.0316 µM, first compound 0.00316 µM)?
**A.** Its viability, T/C is 111%.

**Q.** What about the viability, T/C (second compound 0.0316 µM, first compound 0.01 µM) of the same molecule?
**A.** The viability, T/C was 98.3%.

**Q.** What about the viability, T/C [1] of the same molecule?
**A.** The viability, T/C was 99%.

**Q.** And the viability, T/C [2]?
**A.** The viability, T/C was 70.2%.

**Q.** What about the viability, T/C (second compound 0.1 µM, first compound 0.000316 µM) of the same molecule?
**A.** Its viability, T/C is 108%.

**Q.** What about the viability, T/C (second compound 0.1 µM, first compound 0.001 µM) of the same molecule?
**A.** The viability, T/C was 105%.

**Q.** What about the viability, T/C (second compound 0.1 µM, first compound 0.00316 µM) of the same molecule?
**A.** Its viability, T/C is 94.2%.

**Q.** And the viability, T/C (second compound 0.1 µM, first compound 0.01 µM)?
**A.** Its viability, T/C is 94.4%.

**Q.** And the viability, T/C [3]?
**A.** The viability, T/C was 90.2%.

**Q.** What about the viability, T/C [4] of the same molecule?
**A.** The viability, T/C was 74.9%.

**Q.** And the viability, T/C (second compound 0.316 µM, first compound 0.000316 µM)?
**A.** The viability, T/C was 107%.

**Q.** What about the viability, T/C (second compound 0.316 µM, first compound 0.001 µM) of the same molecule?
**A.** Its viability, T/C is 106%.

**Q.** What about the viability, T/C (second compound 0.316 µM, first compound 0.00316 µM) of the same molecule?
**A.** The viability, T/C was 102%.

**Q.** What about the viability, T/C (second compound 0.316 µM, first compound 0.01 µM) of the same molecule?
**A.** The viability, T/C was 106%.

**Q.** What about the viability, T/C [5] of the same molecule?
**A.** Its viability, T/C is 91.2%.

**Q.** What about the viability, T/C [6] of the same molecule?
**A.** The viability, T/C was 67.2%.

**Q.** What about the viability, T/C (second compound 1 µM, first compound 0.000316 µM) of the same molecule?
**A.** Its viability, T/C is 107%.

**Q.** And the viability, T/C (second compound 1 µM, first compound 0.001 µM)?
**A.** The viability, T/C was 108%.

**Q.** What about the viability, T/C (second compound 1 µM, first compound 0.00316 µM) of the same molecule?
**A.** The viability, T/C was 111%.

**Q.** And the viability, T/C (second compound 1 µM, first compound 0.01 µM)?
**A.** Its viability, T/C is 96.8%.

**Q.** What about the viability, T/C [7] of the same molecule?
**A.** The viability, T/C was 97.4%.

**Q.** And the viability, T/C [8]?
**A.** The viability, T/C was 66.2%.

**Q.** And the viability, T/C (second compound 3.16 µM, first compound 0.000316 µM)?
**A.** Its viability, T/C is 100%.

**Q.** What about the viability, T/C (second compound 3.16 µM, first compound 0.001 µM) of the same molecule?
**A.** The viability, T/C was 101%.

**Q.** What about the viability, T/C (second compound 3.16 µM, first compound 0.00316 µM) of the same molecule?
**A.** Its viability, T/C is 99.9%.

**Q.** What about the viability, T/C (second compound 3.16 µM, first compound 0.01 µM) of the same molecule?
**A.** The viability, T/C was 96.8%.

**Q.** What about the viability, T/C [9] of the same molecule?
**A.** The viability, T/C was 92.3%.

**Q.** What about the viability, T/C [10] of the same molecule?
**A.** The viability, T/C was 41.6%.

**Q.** And the viability, T/C (second compound 10 µM, first compound 0.000316 µM)?
**A.** The viability, T/C was 111%.

**Q.** What about the viability, T/C (second compound 10 µM, first compound 0.001 µM) of the same molecule?
**A.** The viability, T/C was 97.4%.

**Q.** What about the viability, T/C (second compound 10 µM, first compound 0.00316 µM) of the same molecule?
**A.** Its viability, T/C is 99%.

**Q.** What about the viability, T/C (second compound 10 µM, first compound 0.01 µM) of the same molecule?
**A.** The viability, T/C was 72.9%.

**Q.** What about the viability, T/C [11] of the same molecule?
**A.** The viability, T/C was 49.8%.

**Q.** And the viability, T/C [12]?
**A.** The viability, T/C was 32%.
